Where a chain is given by its changes, count along the chain named.

What is called IC50 is the point on the concentration scale where inhibition reaches its midpoint. For orientation: Ki means the dissociation constant of the complex between target and ligand, obtained from inhibition or displacement. A high value points to a looser hold on the target. Usually Km stands for the substrate concentration at which the rate is half of its maximum.

Assay [1] concerns the target T1, WT UGDH (Homo sapiens, UniProt O60701).
T1 sequence (O60701 1-494): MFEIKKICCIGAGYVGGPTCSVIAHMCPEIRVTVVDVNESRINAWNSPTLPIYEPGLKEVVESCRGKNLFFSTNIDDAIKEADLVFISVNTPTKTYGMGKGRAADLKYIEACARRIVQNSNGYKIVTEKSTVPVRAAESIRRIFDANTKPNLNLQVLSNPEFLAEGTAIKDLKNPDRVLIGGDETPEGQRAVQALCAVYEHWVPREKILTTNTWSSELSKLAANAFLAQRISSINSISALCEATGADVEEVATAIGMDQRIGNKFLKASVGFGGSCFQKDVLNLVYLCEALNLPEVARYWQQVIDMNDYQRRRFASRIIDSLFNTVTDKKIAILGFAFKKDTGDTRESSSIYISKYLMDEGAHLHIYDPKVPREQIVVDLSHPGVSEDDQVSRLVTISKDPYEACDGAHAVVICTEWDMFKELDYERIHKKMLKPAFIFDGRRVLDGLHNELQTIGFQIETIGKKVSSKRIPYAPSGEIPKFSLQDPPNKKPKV
Nature of the assay: UGDH inhibition assay (IC50, Ki), WT enzyme. The class given is biochemical. To be noted: for IC50: 50 μM UDP-glc and 1 mM NAD+. As for the experimental part:
(§1) Ki values were determined by varying [UDP-glc] and holding NAD+ at saturating concentrations.
(§2) IC50 experiments were performed as described above (see e.g., Example 2).

Assay [2] concerns the target T1, WT UGDH. Description: Thermal stability of UGDH, WT. The format is binding. As to the method: (§3) FIG. 8A-8D show UDP-xylose effects on the thermal stability of WT, T325A (inducible hexamer), and T325D (obligate dimer) UGDH. […] Statistical analyses were performed using a two-way ANOVA with Bonferroni post tests on PRISM.
The target of assay [3] is T2, T325A (inducible hexamer) UGDH (Homo sapiens, UniProt O60701, T325A).
T2 sequence (O60701 1-494 T325A): T1 sequence (O60701 1-494) with T325A
Nature of the assay: Thermal stability of UGDH, T325A. The class given is binding. As for the experimental part: as §3

Assay [4] has as its target T3, T325D (obligate dimer) UGDH (Homo sapiens, UniProt O60701, T325D).
T3 sequence (O60701 1-494 T325D): T1 sequence (O60701 1-494) with T325D
Nature of the assay: Thermal stability of UGDH, T325D. The class given is binding. As for the experimental part: as §3

Another assay has as its target T4, UGDH T325A (Homo sapiens, UniProt O60701, T325A).
T4 sequence (O60701 1-494 T325A): T1 sequence (O60701 1-494) with T325A
Nature of the assay: Limited trypsin proteolysis of UGDH, T325A. As for the experimental part:
(§4) UDP-xylose [20 μM] protected T325A apo from trypsin digestion (red star) and only slightly affected the other forms. […] Each assay contained 10 μg of enzyme, 10 ng Trypsin, and combinations of substrate, cofactor, and UDP-xylose, which was incubated 2.5 h, followed by SDS-PAGE.
(§5) The same procedures from above (see e.g., Example 7) were followed.

In another assay the target is T5, UGDH T325D (Homo sapiens, UniProt O60701, T325D).
T5 sequence (O60701 1-494 T325D): T1 sequence (O60701 1-494) with T325D
Description: Limited trypsin proteolysis of UGDH, T325D. To be noted: 20 μM, 2.5 h. As to the method:
as §4, §5

In assay [5] the target is T1, WT UGDH. Nature of the assay: UGDH kinetic characterization, WT. The class given is biochemical. Conditions: substrate/cofactor varied. From the text: (§6) T325A and T325D are engineered inducible hexameric and obligate dimeric UGDH species, respectively.
In a further assay the target is T6, T325A-UGDH (Homo sapiens, UniProt O60701, T325A).
T6 sequence (O60701 1-494 T325A): T1 sequence (O60701 1-494) with T325A
Nature of the assay: UGDH kinetic characterization, T325A. The class given is biochemical. To be noted: substrate/cofactor varied.
From the text: as §6

A further assay addresses T7, T325D-UGDH (Homo sapiens, UniProt O60701, T325D).
T7 sequence (O60701 1-494 T325D): T1 sequence (O60701 1-494) with T325D
Nature of the assay: UGDH kinetic characterization, T325D. The format is biochemical. To be noted: substrate/cofactor varied.
From the text: as §6

Assay [6] deals with T8, T325A-UGDH (inducible hexamer) (Homo sapiens, UniProt O60701, T325A).
T8 sequence (O60701 1-494 T325A): T1 sequence (O60701 1-494) with T325A
Nature of the assay: UGDH inhibition assay (IC50, Ki), T325A mutant. The format is biochemical. To be noted: varying [UDP-glc], NAD+ at saturating concentrations. As to the method: as §1, §2

Assay [7] has as its target T9, UDP-glucose dehydrogenase (Homo sapiens, UniProt O60701).
T9 sequence (O60701 1-494): T1 sequence (O60701 1-494)
Nature of the assay: High throughput screening for inhibitors of UDP-glucose dehydrogenase (NADH fluorescence). To be noted: for inhibition at 25 µg/mL (stock): compound plates 20 μL/well of 25 μg/mL compound in 2.5% DMSO, relative to DMSO negative and UDP-xylose positive controls, higher POC = more inhibitory, read-out: POC (Percent of Controls). The class given is biochemical.

With `O=c1ccn([C@@H]2O[C@H](COP(=O)(O)OP(=O)(O)O[C@H]3OC[C@@H](O)[C@H](O)[C@H]3O)[C@@H](O)[C@H]2O)c(=O)[nH]1` [UDP-xylose, reference compound], the Mode of inhibition entry at WT UGDH [1] (UGDH) is given as “competitive inhibitor”. On WT UGDH [1] (WT-UGDH), the IC50 came to 0.58 ± 0.09 µM. In addition, the affinity on WT UGDH [1] (WT-UGDH, varying [UDP-glc], NAD+ at saturating concentrations) corresponds to a Ki of 2670 ± 540 nM. In addition, the “Effect on thermal stability” value at WT UGDH [2] (NAD+ complex with WT) is given as “significantly increase thermal stability”; on WT UGDH [2] (apo WT), “increased the thermal stability”; in assay [3] (NAD+ complex with T325A), “significantly increase thermal stability”; in assay [3] (apo T325A), “increased the thermal stability”; in assay [4] (NAD+ complex with T325D) it was “significantly increase thermal stability”. Besides, the “Effect on trypsin digestion” value is “protected” at UGDH T325A (T325A apo, 20 μM, 2.5 h); “did not affect” at UGDH T325D (T325D apo and UDP-glc forms); “significantly protected” on UGDH T325D (T325D complexes with NAD+, NADH, and UDP-glcA).

Turning to `NC(=O)c1ccc[n+]([C@@H]2O[C@H](COP(=O)([O-])OP(=O)(O)OC[C@H]3O[C@@H](n4cnc5c(N)ncnc54)[C@H](O)[C@@H]3O)[C@@H](O)[C@H]2O)c1` [NAD+], the Km on WT UGDH [5] is 1.03 ± 0.215 mM; at T325A-UGDH, 1.68 ± 0.455 mM; on T325D-UGDH it was 1.2 ± 0.29 mM. Also, the results for the VMAX at WT UGDH [5], at T325A-UGDH and at T325D-UGDH were 206.1 ± 13.0 nmol/min/mg, 103 ± 8.5 nmol/min/mg and 38.0 ± 2.5 nmol/min/mg, respectively. `CCC(C)(O)c1nnn(-c2nonc2N)c1C(C)(O)CC` (stereo not shown) [Compound 1, 2,2′-[1-(4-amino-1,2,5-oxadiazol-3-yl)-1H-1,2,3-triazole-4,5-diyl]di(2-butanol)] registered an IC50 against WT UGDH [1] (WT-UGDH) of 261 ± 6.2 µM. The Ki in assay [6] was 421 ± 118 µM. The “Effect on thermal stability” value (on WT UGDH [2] (UDP-glcA complex with WT); in [3] (UDP-glcA complex with T325A); in assay [4] (UDP-glcA complex with T325D)) was “decrease thermal stability” each time. In addition, the “Effect on trypsin digestion” value on UGDH T325A (T325A with UDP-glcA and UDP-glcA with NADH, 750 μM) is “significantly affects”. Take `N#Cc1ccc(Oc2ccc(C(=O)Nc3ccccc3)cc2)cc1`: in assay [7], the inhibition at 25 µg/mL (stock) came out at 54%. On to `O=C(O[C@@H]1Cc2c(O)cc(O)cc2O[C@@H]1c1cc(O)c(=O)c2c(O)c(O)cc([C@H]3Oc4cc(O)cc(O)c4C[C@H]3O)c2c1)c1cc(O)c(O)c(O)c1`, for which the inhibition at 25 µg/mL (stock) in [7] worked out at 76%.

Turning to `COc1ccc(OC)c(N2C(=O)CC(Sc3nc4ccccc4s3)C2=O)c1` (stereo not shown), the inhibition at 25 µg/mL (stock) in assay [7] amounted to 68%. Turning to `Cc1ccc(OCCn2ccnc2)cc1`, the inhibition at 25 µg/mL (stock) in assay [7] amounted to 85%. Same read-out and setting: the same measure for `O=c1c(O)cccc2ccc(O)c(O)c12`: 73%; for `COc1ccc(-c2ccc(CCC(=O)O)n2-c2ccc(O)cc2)cc1`: 57%. As for `COc1ccc(-c2ccc(CCC(=O)O)o2)cc1`, the inhibition at 25 µg/mL (stock) in assay [7] was determined as 57%. Regarding `O=C(Cc1ccccc1)c1ccc(O)c(O)c1O`, in [7], the inhibition at 25 µg/mL (stock) was 46%. For the compound `O=C(O[C@@H]1Cc2c(O)cc(O)cc2O[C@@H]1c1cc(O)c(=O)c2c(O)c(O)cc([C@H]3Oc4cc(O)cc(O)c4C[C@H]3OC(=O)c3cc(O)c(O)c(O)c3)c2c1)c1cc(O)c(O)c(O)c1`, in assay [7], the inhibition at 25 µg/mL (stock) is 59%. On the same count and under the same terms, the same measure for `COc1ccc2[nH]cc(CCNC(=O)c3ccc([N+](=O)[O-])cc3)c2c1`: 61%. Regarding `N#CSC(C#N)Cc1cccc([N+](=O)[O-])c1` (stereo not shown), the inhibition at 25 µg/mL (stock) in assay [7] stood at 88%. Regarding `COc1cc(/C=C2\C(C)=C([N+](=O)[O-])CS2(=O)=O)ccc1O`, the inhibition at 25 µg/mL (stock) in assay [7] turned out to be 65%. As for `O=C(O[C@@H]1Cc2c(O)cc(O)cc2O[C@@H]1c1cc(O)c(O)c(O)c1-c1c([C@H]2Oc3cc(O)cc(O)c3C[C@H]2O)cc(O)c(O)c1O)c1cc(O)c(O)c(O)c1`, the inhibition at 25 µg/mL (stock) in assay [7] is 83%. Take `C[n+]1sc(Nc2ccccc2)nc1-c1ccccc1`: the inhibition at 25 µg/mL (stock) in assay [7] amounted to 58%.

Regarding `O=C([O-])c1ccccc1-c1c2cc(Br)c(=O)cc-2oc2[c]([Hg][OH])c([O-])c(Br)cc12.[Na+].[Na+]`, the “POC (Percent of Controls)” value in assay [7] came out at 97%. Consider `O=C1CC(Sc2ccccn2)C(=O)N1c1cccc(Cl)c1Cl` (stereo not shown), for which the inhibition at 25 µg/mL (stock) in assay [7] is 49%.

For `Cc1ccc(S(=O)(=O)Nc2cccc3ccc(-n4nc(C)cc4C)nc23)cc1`, in assay [7], the inhibition at 25 µg/mL (stock) turned out to be 148%. As to `O=c1c(O)c(-c2cc(O)c(O)c(O)c2)oc2cc(O)cc(O)c12`, in assay [7], the inhibition at 25 µg/mL (stock) came to 91%. On the same count and under the same terms, the same measure for `Cc1ccc(-c2csc(N)c2C(N)=O)cc1C`: 47%; for `CCC(C)(O)c1nnn(-c2nonc2N)c1C(C)(O)CC` (stereo not shown) [drawing 178]: 101%; for `CCc1ccc(NC(Nc2ccc(CC)cc2)=C(S(=O)(=O)CC)S(=O)(=O)CC)cc1`: 47%. Same read-out and setting: the same measure for `O=C1c2ccc(O)cc2O[C@H](c2cc(O)c(O)c(O)c2)[C@H]1O`: 96%; for `Nc1ccc(Cc2ccc(N)c(O)c2)cc1O`: 62%. Regarding `Nc1ncc(C2=C(Cl)C(O)C(Cl)=C(Cl)C2O)s1` (stereo not shown), the inhibition at 25 µg/mL (stock) in assay [7] worked out at 71%.

For the compound `O=C(Oc1cc(O)cc2c1C[C@@H](OC(=O)c1cc(O)c(O)c(O)c1)[C@@H](c1cc(O)c(O)c(O)c1)O2)c1cc(O)c(O)c(O)c1`, the inhibition at 25 µg/mL (stock) in [7] is 67%. Same read-out and setting: the same measure for `CCC(=O)Nc1ccc(C(=O)Nc2ccc(Cl)cc2C(=O)O)cc1`: 50%. The same measure, in the same setting: the same measure for `O=c1c(-c2cc(O)c(O)c(O)c2)coc2cc(O)c(O)c(O)c12`: 98%; for `CC1(C)CC(=O)C2=C(C1)OC(N)=C(C#N)C21CCCC1`: 126%; for `Cc1cc(=O)n2ccc(N)c(O)c2n1`: 50%.

The values are drawn from patent US11478457B2, “Castration-resistant prostate cancer” (priority 2015, dated 2022).
